Usually IC50 stands for the concentration needed to halve the response being measured.

Test [1] has as its target T1, Recombinant STAT3 protein (STAT3 (G127-I722)) (Homo sapiens, UniProt P40763).
T1 construct: Recombinant STAT3 protein (STAT3 (G127-I722))
In words: STAT3 Fluorescence Polarization (FP) Assay. It counts as binding. Conditions: STAT3 25 nM, probe 5-FAM-GpYLPQTV-NH2 2 nM, 45-minute incubation; read-out: STAT3 (FP assay IC50). The gist of the method:
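Displacement of a fluorescent phosphotyrosine peptide (5-FAM-GpYLPQTV-NH2, 2 nM) from 25 nM recombinant STAT3 G127-I722 was monitored by FP after 45 min at room temperature.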
For orientation: Polarisation of emitted light reports the rotation of a fluorescent probe.

Test [2] addresses T2, Recombinant STAT6 protein (STAT6 (W123-T658)) (Homo sapiens, UniProt P42226).
T2 construct: Recombinant STAT6 protein (STAT6 (W123-T658))
T2 sequence (P42226 123-658): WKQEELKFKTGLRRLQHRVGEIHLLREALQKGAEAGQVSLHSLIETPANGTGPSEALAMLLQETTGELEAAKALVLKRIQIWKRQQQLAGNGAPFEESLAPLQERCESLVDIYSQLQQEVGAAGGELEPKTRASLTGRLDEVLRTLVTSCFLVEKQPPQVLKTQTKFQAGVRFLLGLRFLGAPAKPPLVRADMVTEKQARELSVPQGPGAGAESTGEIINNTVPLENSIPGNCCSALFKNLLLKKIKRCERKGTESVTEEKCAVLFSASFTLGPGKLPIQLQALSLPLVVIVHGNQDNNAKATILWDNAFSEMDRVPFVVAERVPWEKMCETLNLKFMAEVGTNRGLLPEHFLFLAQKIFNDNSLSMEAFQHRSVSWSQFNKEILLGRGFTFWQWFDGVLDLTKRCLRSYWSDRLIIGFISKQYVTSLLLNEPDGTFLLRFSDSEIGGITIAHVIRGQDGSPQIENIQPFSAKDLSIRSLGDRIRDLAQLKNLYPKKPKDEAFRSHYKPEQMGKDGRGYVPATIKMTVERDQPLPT
The experiment in a line: STAT6 Fluorescence Polarization (FP) Assay. In kind it is binding. The following applies: STAT6 250 nM, probe 5-FAM-Ap[…]-NH2 2 nM, 45-minute incubation; read-out: STAT6 (FP assay IC50). The method in brief: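 Probe displacement format: serially diluted compounds incubated 45 min at room temperature with 2 nM fluorescent phosphopeptide and 250 nM STAT6 (W123-T658) in pH 7.4 HEPES buffer, 1% DMSO final. Polarization signal plotted against log concentration, IC50 fitted by nonlinear regression.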

T1 sequence (P40763 127-722): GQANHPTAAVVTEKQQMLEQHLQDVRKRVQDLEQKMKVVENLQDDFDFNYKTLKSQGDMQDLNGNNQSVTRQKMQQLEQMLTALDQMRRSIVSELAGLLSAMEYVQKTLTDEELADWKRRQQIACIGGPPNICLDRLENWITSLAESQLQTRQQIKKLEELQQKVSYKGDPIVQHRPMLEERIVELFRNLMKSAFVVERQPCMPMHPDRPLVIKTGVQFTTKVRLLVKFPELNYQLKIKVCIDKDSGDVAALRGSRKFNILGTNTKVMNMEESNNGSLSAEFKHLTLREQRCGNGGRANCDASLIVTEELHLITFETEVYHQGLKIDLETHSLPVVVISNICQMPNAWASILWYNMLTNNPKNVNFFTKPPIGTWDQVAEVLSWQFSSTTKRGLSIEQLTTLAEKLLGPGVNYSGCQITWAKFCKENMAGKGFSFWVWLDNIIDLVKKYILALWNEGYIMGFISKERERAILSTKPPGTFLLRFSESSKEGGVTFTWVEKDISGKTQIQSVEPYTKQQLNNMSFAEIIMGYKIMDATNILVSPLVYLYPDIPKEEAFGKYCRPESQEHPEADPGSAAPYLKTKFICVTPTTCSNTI

Take `O=C(N[C@H]1CCCC[C@H]2CC[C@@H](C(=O)N3CC(F)(c4ccccc4F)C3)N2C1=O)c1cc2cc(C(F)(F)P(=O)(O)O)ccc2s1` [Compound 54, (difluoro(2-(((3S,6S,10aS)-3-(3-fluoro-3-(2-fluorophenyl)azetidine-1-carbonyl)-5-oxodecahydropyrrolo [1,2-a]azocin-6-yl)carbamoyl)benzo[b]thiophen-5-yl)methyl) phosphonic acid]: the IC50 was under 100 nM in test [1] and 0.3 to 3 µM in test [2].
`O=C(N[C@H]1CCCC[C@H]2CC[C@@H](C(=O)Nc3ccc4nccc(Cl)c4c3)N2C1=O)c1cc2cc(C(F)(F)P(=O)(O)O)ccc2s1` [Compound 55, ((2-(((3S,6S,10aS)-3-((4-chloroquinolin-6-yl)carbamoyl)-5-oxodecahydropyrrolo [1,2-a]azocin-6-yl)carbamoyl)benzo[b]thiophen-5-yl)difluoromethyl) phosphonic acid]: the results for the 50% inhibitory concentration (IC50) in test [1] and in test [2] were 100 to 1000 nM and 0.3 to 3 µM, respectively.
On to `CC(C)(O)c1cn(C2CN(C(=O)[C@@H]3CC[C@@H]4CCCC[C@H](NC(=O)c5cc6cc(C(F)(F)P(=O)(O)O)ccc6s5)C(=O)N43)C2)nn1` [Compound 56, (difluoro(2-(((3S,6S,10aS)-3-(3-(4-(2-hydroxypropan-2-yl)-1H-1,2,3-triazol-1-yl)azetidine-1-carbonyl)-5-oxodecahydropyrrolo [1,2-a]azocin-6-yl)carbamoyl)benzo[b]thiophen-5-yl)methyl) phosphonic acid], for which the half-maximal inhibitory concentration (IC50) is 100 to 1000 nM in test [1] and 3 to 30 µM in test [2].
As to `O=C(N[C@H]1CCCC[C@H]2CC[C@@H](C(=O)Nc3ccc4c(c3)CCS4(=O)=O)N2C1=O)c1cc2cc(C(F)(F)P(=O)(O)O)ccc2s1` [Compound 57, ((2-(((3S,6S,10aS)-3-((1,1-dioxido-2,3-dihydrobenzo[b]thiophen-5-yl)carbamoyl)-5-oxodecahydropyrrolo [1,2-a]azocin-6-yl)carbamoyl)benzo[b]thiophen-5-yl)difluoromethyl) phosphonic acid], the results for the IC50 in test [1] and in test [2] were 100 to 1000 nM and 0.3 to 3 µM, respectively.
On to `O=C(N[C@H]1CCCC[C@H]2CC[C@@H](C(=O)Nc3ccc4c(c3)CCCS4(=O)=O)N2C1=O)c1cc2cc(C(F)(F)P(=O)(O)O)ccc2s1` [Compound 58, ((2-(((3S,6S,10aS)-3-((1,1-dioxidothio-chroman-6-yl)carbamoyl)-5-oxodecahydropyrrolo [1,2-a]azocin-6-yl)carbamoyl)benzo[b]thiophen-5-yl)difluoro-methyl)phosphonic acid], for which the IC50 in test [1] was 100 to 1000 nM; in test [2] it was 0.3 to 3 µM.
On to `Cc1[nH]nc2ccc(NC(=O)[C@@H]3CC[C@@H]4CCCC[C@H](NC(=O)c5cc6cc(C(F)(F)P(=O)(O)O)ccc6s5)C(=O)N43)cc12` [Compound 59, (difluoro(2-(((3S,6S,10aS)-3-((3-methyl-2H-indazol-5-yl)carbamoyl)-5-oxodecahydro-pyrrolo[1,2-a]azocin-6-yl)carbamoyl)benzo[b]thiophen-5-yl)methyl) phosphonic acid], for which the IC50 in test [1] lay within 100 to 1000 nM; in test [2] it was 0.3 to 3 µM.
For the molecule `O=C(N[C@H]1CCC[C@H]2CCC[C@@H](C(=O)N3CC(n4ccnc4)C3)N2C1=O)c1cc2cc(C(F)(F)P(=O)(O)O)ccc2s1` [Compound 60, ((2-(((4S,7S,10aS)-4-(3-(1H-imidazol-1-yl)azetidine-1-carbonyl)-6-oxodecahydropyrido [1,2-a]azepin-7-yl)carbamoyl)benzo[b]thiophen-5-yl)difluoromethyl) phosphonic acid], the IC50 in test [1] is under 100 nM; in test [2], 3 to 30 µM.
For the molecule `N=S1(=O)CCC(C2CN(C(=O)[C@@H]3CC[C@@H]4CCCC[C@H](NC(=O)c5cc6cc(C(F)(F)P(=O)(O)O)ccc6s5)C(=O)N43)C2)CC1` (stereo partly drawn) [Compound 61, (difluoro(2-(((3S,6S,10aS)-3-(3-(1-imino-1-oxidohexahydro-1l6-thiopyran-4-yl)azetidine-1-carbonyl)-5-oxodecahydropyrrolo [1,2-a]azocin-6-yl)carbamoyl)benzo[b]thiophen-5-yl)methyl) phosphonic acid], the IC50 in test [1] lay in the range of 100 to 1000 nM; in test [2] it was 0.3 to 3 µM.
With `O=C(N[C@H]1CCCC[C@H]2CCC[C@@H](C(=O)N3CC(n4ccnc4)C3)N2C1=O)c1cc2cc(C(F)(F)P(=O)(O)O)ccc2s1` [Compound 62, ((2-(((4S,7S,11aS)-4-(3-(1H-imidazol-1-yl)azetidine-1-carbonyl)-6-oxodecahydro-2H-pyrido[1,2-a]azocin-7-yl)carbamoyl)benzo[b]thiophen-5-yl)difluoromethyl) phosphonic acid], the IC50 in test [1] is over 10000 nM; in test [2], over 30 µM.
As for `C#Cc1ncoc1C1CN(C(=O)[C@@H]2CC[C@@H]3CCCC[C@H](NC(=O)c4cc5cc(C(F)(F)P(=O)(O)O)ccc5s4)C(=O)N32)C1` [Compound 64, ((2-(((3S,6S,10aS)-3-(3-(4-ethynyloxazol-5-yl)azetidine-1-carbonyl)-5-oxodecahydropyrrolo [1,2-a]azocin-6-yl)carbamoyl)benzo[b]thiophen-5-yl)difluoromethyl) phosphonic acid], the values for the IC50 in test [1] and in test [2] were under 100 nM and 0.3 to 3 µM, respectively.
As to `Cn1ccc(C2CN(C(=O)[C@@H]3CC[C@@H]4CCCC[C@H](NC(=O)c5cc6cc(C(F)(F)P(=O)(O)O)ccc6s5)C(=O)N43)C2)n1` [Compound 65, (difluoro(2-(((3S,6S,10S)-3-(3-(1-methyl-1H-pyrazol-3-yl)azetidine-1-carbonyl)-5-oxodecahydropyrrolo [1,2-a]azocin-6-yl)carbamoyl)benzo[b]thiophen-5-yl)methyl) phosphonic acid], the IC50 is 100 to 1000 nM in test [1] and 0.3 to 3 µM in test [2].
The corresponding values for `CS(=N)(=O)CC1CN(C(=O)[C@@H]2CC[C@@H]3CCCC[C@H](NC(=O)c4cc5cc(C(F)(F)P(=O)(O)O)ccc5s4)C(=O)N32)C1` (stereo partly drawn) [Compound 66, (difluoro(2-(((3S,6S,10aS)-3-(3-((S-methyl-sulfonimidoyl)methyl)azetidine-1-carbonyl)-5-oxodecahydropyrrolo [1,2-a]azocin-6-yl)carbamoyl)benzo[b]thiophen-5-yl)methyl) phosphonic acid] are under 100 nM and 3 to 30 µM.
The corresponding values for `O=C(N[C@H]1CCCC[C@H]2CC[C@@H](C(=O)N3CC(c4c[nH]cn4)C3)N2C1=O)c1cc2cc(C(F)(F)P(=O)(O)O)ccc2s1` [Compound 67, ((2-(((3S,6S,10aS)-3-(3-(1H-imidazol-4-yl)azetidine-1-carbonyl)-5-oxodecahydro-pyrrolo[1,2-a]azocin-6-yl)carbamoyl)benzo[b]thiophen-5-yl)difluoromethyl) phosphonic acid] are under 100 nM and 0.3 to 3 µM.
Regarding `Cc1cnn(C2CN(C(=O)[C@@H]3CC[C@@H]4CCCC[C@H](NC(=O)c5cc6cc(C(F)(F)P(=O)(O)O)ccc6s5)C(=O)N43)C2)c1` [Compound 68, (difluoro(2-(((3S,6S,10aS)-3-(3-(4-methyl-1H-pyrazol-1-yl)azetidine-1-carbonyl)-5-oxodecahydropyrrolo [1,2-a]azocin-6-yl)carbamoyl)benzo[b]thiophen-5-yl)methyl) phosphonic acid], the IC50 in test [1] lay within 100 to 1000 nM; in test [2], 3 to 30 µM.
The corresponding values for `Cn1nccc1C=C1CN(C(=O)[C@@H]2CC[C@@H]3CCCC[C@H](NC(=O)c4cc5cc(C(F)(F)P(=O)(O)O)ccc5s4)C(=O)N32)C1` [Compound 69, (difluoro(2-(((3S,6S,10aS)-3-(3-((1-methyl-1H-pyrazol-5-yl)methylene)azetidine-1-carbonyl)-5-oxodecahydropyrrolo [1,2-a]azocin-6-yl)carbamoyl)benzo[b]thiophen-5-yl)methyl) phosphonic acid] are 100 to 1000 nM and 0.3 to 3 µM.
The corresponding values for `N=S1(=O)CC2(CN(C(=O)[C@@H]3CC[C@@H]4CCCC[C@H](NC(=O)c5cc6cc(C(F)(F)P(=O)(O)O)ccc6s5)C(=O)N43)C2)C1` [Compound 70, (difluoro(2-(((3S,6S,10aS)-3-(2-imino-2-oxido-2l6-thia-6-azaspiro[3.3]heptane-6-carbonyl)-5-oxodecahydropyrrolo [1,2-a]azocin-6-yl)carbamoyl)benzo[b]thiophen-5-yl)methyl) phosphonic acid] are 100 to 1000 nM and 3 to 30 µM.

For the origin of these results see US20250215029A1 (Recludix Pharma, Inc., priority 2022, published 2025).
